According to patent US9388139B2, “Derivatives of celeboxib, use thereof and preparation thereof” (German University, priority 2011, dated 2016):
pIC50: −log10 of the molar value.

Key:
Test in all cases: Tumor cell growth inhibition panel
Format in all cases: cell-based
[1] = tested on: A549; settings: Homo sapiens, Lung
Method: (§1) Thus, compound 12 is able to show broad spectrum tumor cell growth inhibitory activity independent of cyclooxygenase inhibition, whereas PDE5 may be the major contributor to such activity.
(§2) The human tumor cell lines were purchased from the American Type Culture Collection (Mansassas, Va.) and maintained in RPMI-1640+2.0 g/L glucose pH 7.4+5% FBS+4 mM glutamine (complete growth medium), incubated at 37° C. in 5% CO2, and passaged at subconfluent density. The human fetal colon FHC cells were cultured in DMEM:F12 medium supplemented with 10% FBS, cholera toxin (10 ng/mL), 5 μg/ml transferrin, 5 μg/ml insulin, and 100 ng/ml hydrocortisone. The passage number was routinely limited to approximately 20 and morphology monitored with each passage, but no additional authentication of the cell lines was performed.
(§3) Cells were plated in 96-well microtiter plates at a density of 5,000 cells per well and allowed to adhere overnight prior to treatment. Cells were treated with a 2-log concentration range of either SS or SBA and incubated for an additional 72 hours. For siRNA assays, cells were transfected in OptiMEM media with 0.5% SureFECT transfection reagent and 200 nmol/L of either negative control or PDE5 siRNA and incubated at 37° C. for 24 h prior to treatment. At the end of the incubation period, relative cell viability was compared to vehicle controls using the Cell Titer Glo Assay (Promega, Madison Wis.), which measures viable cells based on ATP content, according to the manufacturer's specifications.

[2] = tested on: SNB-75; settings: Homo sapiens, CNS
Method: as §1, §2, §3

[3] = tested on: SF-539; settings: Homo sapiens, CNS
Method: as §1, §2, §3

[4] = tested on: HOP-62; settings: Homo sapiens, Lung
Method: as §1, §2, §3

[5] = tested on: NCI-H522; settings: Homo sapiens, Lung
Method: as §1, §2, §3

[6] = tested on: SF-268; settings: Homo sapiens, CNS
Method: as §1, §2, §3

[7] = tested on: HT29; settings: Homo sapiens, HT-29, Colon
Method: as §1, §2, §3

[8] = tested on: K562; settings: Homo sapiens, Hematopoietic
Method: as §1, §2, §3

[9] = tested on: BT-549; settings: Homo sapiens, Breast
Method: as §1, §2, §3

[10] = tested on: HCT-15; settings: Homo sapiens, Colon
Method: as §1, §2, §3

[11] = tested on: UO-31; settings: Homo sapiens, Renal
Method: as §1, §2, §3

[12] = tested on: LOX IMV1; settings: Homo sapiens, Melanoma
Method: as §1, §2, §3

[13] = tested on: NCI-H322M; settings: Homo sapiens, Lung
Method: as §1, §2, §3

[14] = tested on: MDA-MB-231; settings: Homo sapiens, Breast
Method: as §1, §2, §3

[15] = tested on: IGROV-1; settings: Homo sapiens, Ovarian
Method: as §1, §2, §3

[16] = tested on: PC-3; settings: Homo sapiens, Prostate
Method: as §1, §2, §3

[17] = tested on: UACC-257; settings: Homo sapiens, Melanoma
Method: as §1, §2, §3

[18] = tested on: T-47D; settings: Homo sapiens, T47D, Breast
Method: as §1, §2, §3

[19] = tested on: SF-295; settings: Homo sapiens, CNS
Method: as §1, §2, §3

[20] = tested on: HCC-2998; settings: Homo sapiens, Colon
Method: as §1, §2, §3

[21] = tested on: SW-620; settings: Homo sapiens, Colon
Method: as §1, §2, §3

[22] = tested on: COL0205; settings: Homo sapiens, Colon
Method: as §1, §2, §3

[23] = tested on: SNB-19; settings: Homo sapiens, CNS
Method: as §1, §2, §3

[24] = tested on: SN12C; settings: Homo sapiens, Renal
Method: as §1, §2, §3

[25] = tested on: NCI-ADR/RES; settings: Homo sapiens; Other, NCI-ADR/RES (adriamycin resistant)
Method: as §1, §2, §3

[26] = tested on: OVCAR-5; settings: Homo sapiens, Ovarian
Method: as §1, §2, §3

[27] = tested on: SK-MEL-2; settings: Homo sapiens, Melanoma
Method: as §1, §2, §3

[28] = tested on: NCI-H226; settings: Homo sapiens, Lung
Method: as §1, §2, §3

[29] = tested on: CAKI-1; settings: Homo sapiens, Renal
Method: as §1, §2, §3

[30] = tested on: MOLT-4; settings: Homo sapiens, Hematopoietic
Method: as §1, §2, §3

[31] = tested on: OVCAR-3; settings: Homo sapiens, Ovarian
Method: as §1, §2, §3

[32] = tested on: MALME-3M; settings: Homo sapiens, Melanoma
Method: as §1, §2, §3

[33] = tested on: EKVX; settings: Homo sapiens, Lung
Method: as §1, §2, §3

[34] = tested on: TK-10; settings: Homo sapiens, Renal
Method: as §1, §2, §3

[35] = tested on: KM12; settings: Homo sapiens, Colon
Method: as §1, §2, §3

[36] = tested on: U251; settings: Homo sapiens, U-251, CNS
Method: as §1, §2, §3

[37] = tested on: RXF-393; settings: Homo sapiens, Renal
Method: as §1, §2, §3

[38] = tested on: M14; settings: Homo sapiens, Melanoma
Method: as §1, §2, §3

[39] = tested on: HOP-92; settings: Homo sapiens, Lung
Method: as §1, §2, §3

[40] = tested on: ACHN; settings: Homo sapiens, Renal
Method: as §1, §2, §3

[41] = tested on: SK-MEL-28; settings: Homo sapiens, Melanoma
Method: as §1, §2, §3

[42] = tested on: 786-0; settings: Homo sapiens, Renal
Method: as §1, §2, §3

[43] = tested on: HCT-116; settings: Homo sapiens, Colon
Method: as §1, §2, §3

[44] = tested on: UACC-62; settings: Homo sapiens, Melanoma
Method: as §1, §2, §3

[45] = tested on: SR; settings: Homo sapiens, Hematopoietic
Method: as §1, §2, §3

How did the pIC50 [1] turn out when CC(C)(C)C1=NN(c2ccc(C(=O)O)cc2)C(c2ccc(Cl)cc2Cl)C1 (stereo not drawn) [Compound 12, 4-(3-(tert-Butyl)-5-(2,4-dichlorophenyl)-4,5-dihydro-1H-pyrazol-1-yl)benzoic acid] was run?
The pIC50 was 4.24.

What about the pIC50 [2] of the same compound?
Its pIC50 is 4.17.

What about the pIC50 [3] of the same compound?
The pIC50 was 4.28.

And the pIC50 [4]?
Its pIC50 is 4.43.

And the pIC50 [5]?
Its pIC50 is 4.30.

What about the pIC50 [6] of the same compound?
Its pIC50 is 4.39.

And the pIC50 [7]?
Its pIC50 is 4.53.

What about the pIC50 [8] of the same compound?
The pIC50 was 4.48.

What about the pIC50 [9] of the same compound?
The pIC50 was 4.26.

And the pIC50 [10]?
The pIC50 was 4.39.

And the pIC50 [11]?
Its pIC50 is 4.25.

And the pIC50 [12]?
Its pIC50 is 4.30.

And the pIC50 [13]?
Its pIC50 is 4.30.

What about the pIC50 [14] of the same compound?
Its pIC50 is 4.19.

And the pIC50 [15]?
The pIC50 was 4.23.

And the pIC50 [16]?
The pIC50 was 4.26.

What about the pIC50 [17] of the same compound?
Its pIC50 is 4.15.

What about the pIC50 [18] of the same compound?
The pIC50 was 4.20.

What about the pIC50 [19] of the same compound?
The pIC50 was 4.34.

What about the pIC50 [20] of the same compound?
Its pIC50 is 4.38.

And the pIC50 [21]?
The pIC50 was 4.29.

And the pIC50 [22]?
Its pIC50 is 4.50.

What about the pIC50 [23] of the same compound?
Its pIC50 is 4.28.

What about the pIC50 [24] of the same compound?
The pIC50 was 4.30.

What about the pIC50 [25] of the same compound?
The pIC50 was 4.24.

What about the pIC50 [26] of the same compound?
Its pIC50 is 4.23.

What about the pIC50 [27] of the same compound?
Its pIC50 is 4.35.

What about the pIC50 [28] of the same compound?
The pIC50 was 4.25.

And the pIC50 [29]?
Its pIC50 is 4.06.

And the pIC50 [30]?
The pIC50 was 4.68.

And the pIC50 [31]?
The pIC50 was 4.42.

What about the pIC50 [32] of the same compound?
The pIC50 was 4.18.

What about the pIC50 [33] of the same compound?
Its pIC50 is 4.24.

And the pIC50 [34]?
The pIC50 was 4.13.

And the pIC50 [35]?
Its pIC50 is 4.46.

And the pIC50 [36]?
The pIC50 was 4.48.

What about the pIC50 [37] of the same compound?
Its pIC50 is 4.33.

What about the pIC50 [38] of the same compound?
The pIC50 was 4.20.

What about the pIC50 [39] of the same compound?
Its pIC50 is 4.28.

And the pIC50 [40]?
The pIC50 was 4.26.

What about the pIC50 [41] of the same compound?
Its pIC50 is 4.14.

And the pIC50 [42]?
Its pIC50 is 4.33.

And the pIC50 [43]?
The pIC50 was 4.41.

What about the pIC50 [44] of the same compound?
The pIC50 was 4.37.

What about the pIC50 [45] of the same compound?
Its pIC50 is 4.37.
